From patent publication US20210052703A1 (SHANGHAI BENEMAE PHARMACEUTICAL CORPORATION, priority 2018, published 2021)

Tested on: Sprague-Dawley (SD) rats
Assay: stomach emptying in male and female SD rats, various dosages (Example 6)
Conditions: for % of Gastric Remains / Gross Weight of Stomach / Propelling Distance of Carbon Powder / Propelling Rate of Carbon Powder: X ± SE
[1] = female rats, 10 μg/kg subcutaneous
[2] = female rats, 12.5 μg/kg subcutaneous
[3] = female rats, 15 μg/kg subcutaneous
[4] = female rats, 30 μg/kg subcutaneous
[5] = female rats, 45 μg/kg subcutaneous
[6] = female rats, 60 μg/kg subcutaneous
[7] = male rats, 10 μg/kg subcutaneous
[8] = male rats, 12.5 μg/kg subcutaneous
[9] = male rats, 15 μg/kg subcutaneous
[10] = male rats, 30 μg/kg subcutaneous
[11] = male rats, 45 μg/kg subcutaneous
[12] = male rats, 60 μg/kg subcutaneous

Protocol: Five minutes after subcutaneous injection, gavage was conducted using 5% carbon powder suspension (in 2% carboxymethylcellulose solution) at 1.5 ml/100 g body weight. […] The stomach was wiped dry with filter paper and weighed for the gross weight of the stomach. Then the content of the stomach was removed and the stomach was weighed for the net weight. The respective distance from the pyloric sphincter to the front of carbon powder suspension and to the distal end of the large intestine was measured. • propelling distance of carbon powder in the intestine (cm)=distance from pylorus to the proximal end of carbon powder; • mass of carbon powder gavaged=concentration of carbon powder suspension×volume; • propelling rate of carbon powder (%)=propelling distance of carbon powder in the intestine (cm)/entire length of intestine (cm)×100%; • rate of gastric remains (%)=(gross weight of stomach−net weight of stomach)/mass of carbon powder gavaged×100%.
The animals were fasted 29-33 hours before injection, and the animals were not given any water 5-7 hours before injection. Injections were made by subcutaneous administration to the neck, at 0.1 ml/100 g body weight.

CC[C@H](C)[C@H](NC(=O)[C@H](Cc1ccccc1)NC(=O)[C@H](CCC(=O)O)NC(=O)[C@H](CCCCN)NC(=O)[C@H](C)NC(=O)[C@H](C)NC(=O)[C@H](CCC(N)=O)NC(=O)CNC(=O)[C@H](CCC(=O)O)NC(=O)[C@H](CC(C)C)NC(=O)[C@H](Cc1ccc(O)cc1)NC(=O)[C@H](CO)NC(=O)[C@H](CO)NC(=O)[C@@H](NC(=O)[C@H](CC(=O)O)NC(=O)[C@H](CO)NC(=O)[C@@H](NC(=O)[C@H](Cc1ccccc1)NC(=O)[C@@H](NC(=O)CNC(=O)[C@H](CCC(=O)O)NC(=O)[C@H](C)NC(=O)[C@@H](N)Cc1cnc[nH]1)[C@@H](C)O)[C@@H](C)O)C(C)C)C(=O)N[C@@H](C)C(=O)N[C@@H](Cc1c[nH]c2ccccc12)C(=O)N[C@@H](CC(C)C)C(=O)N[C@H](C(=O)N[C@@H](CCCCN)C(=O)NCC(=O)N[C@@H](CCCNC(=N)N)C(=O)O)C(C)C [Beinaglutide]
minimal effective dosage (inhibition of stomach emptying) (female rats): 10 µg/kg
% of Gastric Remains [1]: 36.42 ± 6.50%
Gross Weight of Stomach [1]: 1.86 ± 0.14 g
Propelling Distance of Carbon Powder [1]: 53.01 ± 3.12 cm
Propelling Rate of Carbon Powder [1]: 49.92 ± 2.97 %
% of Gastric Remains [2]: 47.54 ± 5.22%
Gross Weight of Stomach [2]: 2.03 ± 0.10 g
Propelling Distance of Carbon Powder [2]: 49.50 ± 2.54 cm
Propelling Rate of Carbon Powder [2]: 46.83 ± 2.41 %
% of Gastric Remains [3]: 51.86 ± 6.07%
Gross Weight of Stomach [3]: 2.18 ± 0.11 g
Propelling Distance of Carbon Powder [3]: 44.50 ± 2.97 cm
Propelling Rate of Carbon Powder [3]: 41.26 ± 2.63 %
% of Gastric Remains [4]: 73.35 ± 16.68 %
Gross Weight of Stomach [4]: 2.59 ± 0.38 g
Propelling Distance of Carbon Powder [4]: 33.96 ± 5.58 cm
Propelling Rate of Carbon Powder [4]: 32.15 ± 5.54 %
% of Gastric Remains [5]: 120.95 ± 9.48 %
Gross Weight of Stomach [5]: 3.55 ± 0.21 g
Propelling Distance of Carbon Powder [5]: 25.06 ± 5.91 cm
Propelling Rate of Carbon Powder [5]: 23.18 ± 5.46 %
% of Gastric Remains [6]: 141.28 ± 8.90 %
Gross Weight of Stomach [6]: 3.90 ± 0.20 g
Propelling Distance of Carbon Powder [6]: 15.71 ± 4.58 cm
Propelling Rate of Carbon Powder [6]: 14.36 ± 4.08 %
human dose corresponding to minimal effective dosage (from female rats 10 μg/kg): 0.11 mg/day
human dose corresponding to minimal effective dosage (from male rats 30 μg/kg): 0.33 mg/day
minimal effective dosage (inhibition of stomach emptying) (male rats): 30 µg/kg
% of Gastric Remains [7]: 39.93 ± 6.46%
Gross Weight of Stomach [7]: 2.39 ± 0.19 g
Propelling Distance of Carbon Powder [7]: 55.20 ± 2.69 cm
Propelling Rate of Carbon Powder [7]: 50.91 ± 2.84%
% of Gastric Remains [8]: 38.98 ± 3.50%
Gross Weight of Stomach [8]: 2.36 ± 0.09 g
Propelling Distance of Carbon Powder [8]: 54.96 ± 3.96 cm
Propelling Rate of Carbon Powder [8]: 50.36 ± 3.34%
% of Gastric Remains [9]: 40.22 ± 7.06%
Gross Weight of Stomach [9]: 2.42 ± 0.20 g
Propelling Distance of Carbon Powder [9]: 52.27 ± 3.75 cm
Propelling Rate of Carbon Powder [9]: 48.22 ± 3.05%
% of Gastric Remains [10]: 58.23 ± 7.38 %
Gross Weight of Stomach [10]: 2.92 ± 0.23 g
Propelling Distance of Carbon Powder [10]: 42.82 ± 2.81 cm
Propelling Rate of Carbon Powder [10]: 38.55 ± 2.81 %
% of Gastric Remains [11]: 97.66 ± 9.95 %
Gross Weight of Stomach [11]: 3.90 ± 0.27 g
Propelling Distance of Carbon Powder [11]: 15.73 ± 4.30 cm
Propelling Rate of Carbon Powder [11]: 14.67 ± 4.13 %
% of Gastric Remains [12]: 110.28 ± 7.79 %
Gross Weight of Stomach [12]: 4.21 ± 0.19 g
Propelling Distance of Carbon Powder [12]: 14.64 ± 4.32 cm
Propelling Rate of Carbon Powder [12]: 12.91 ± 3.68 %
